Assay results reported in ChEMBL document CHEMBL2029316, “Linker-based hemisuccinate derivatives of artemisinin: synthesis and antimalarial assessment against multidrug-resistant Plasmodium yoelii nigeriensis in mice” (J Med Chem, 2012).
Active and inactive are the calls of the source. The rule behind the calls is not given here.

System: Plasmodium yoelii nigeriensis
Test: Antimalarial activity against chloroquine-, mefloquine-, halofantrine-resistant Plasmodium yoelii nigeriensis blood stream schizonts infected in Swiss mouse assessed as suppression of parasitemia at 48 mg/kg, im administered once daily for 4 days relative to control
Format: functional
Details: route intramuscular
C[C@H]1[C@@H](OCCCCCCCCCOC(=O)CCC(=O)O)O[C@@H]2O[C@@]3(C)CC[C@H]4[C@H](C)CC[C@@H]1[C@@]24OO3 (mixture of isomers) gave an Activity of 100%.
With C[C@H]1[C@@H](OCCCCOC(=O)CCC(=O)O)O[C@@H]2O[C@@]3(C)CC[C@H]4[C@H](C)CC[C@@H]1[C@@]24OO3 the Activity was 100%.
Compound C[C@H]1[C@@H](OCCCCO)O[C@@H]2OC3(C)CC[C@H]4[C@H](C)CC[C@@H]1[C@@]24OO3 has an Activity of 100%.
Work on C[C@H]1[C@@H](OCCCCCCCCOC(=O)CCC(=O)O)O[C@@H]2O[C@@]3(C)CC[C@H]4[C@H](C)CC[C@@H]1[C@@]24OO3 yielded an Activity of 100%.
For C[C@H]1[C@@H](OCCO)O[C@@H]2O[C@@]3(C)CC[C@H]4[C@H](C)CC[C@@H]1[C@@]24OO3, the Activity was 100%.
Work on C[C@H]1[C@@H](OCCOC(=O)CCC(=O)O)O[C@@H]2O[C@@]3(C)CC[C@H]4[C@H](C)CC[C@@H]1[C@@]24OO3 yielded an Activity of 100%.

System: Plasmodium yoelii nigeriensis
Test: Antimalarial activity against chloroquine-, mefloquine-, halofantrine-resistant Plasmodium yoelii nigeriensis blood stream schizonts infected in Swiss mouse assessed as suppression of parasitemia at 24 mg/kg, im administered once daily for 4 days relative to control
Format: functional
Details: route intramuscular
C[C@H]1[C@@H](OCCCCCCCCCOC(=O)CCC(=O)O)O[C@@H]2O[C@@]3(C)CC[C@H]4[C@H](C)CC[C@@H]1[C@@]24OO3 (mixture of isomers) gave an Activity of 93.09%.
With C[C@H]1[C@@H](OCCCCO)O[C@@H]2OC3(C)CC[C@H]4[C@H](C)CC[C@@H]1[C@@]24OO3 the Activity was 100%.
For C[C@H]1[C@@H](OCCCCCCCCOC(=O)CCC(=O)O)O[C@@H]2O[C@@]3(C)CC[C@H]4[C@H](C)CC[C@@H]1[C@@]24OO3, the Activity was 100%.
In the case of C[C@H]1[C@@H](OCCO)O[C@@H]2O[C@@]3(C)CC[C@H]4[C@H](C)CC[C@@H]1[C@@]24OO3, the Activity is reported as 100%.

System: Plasmodium yoelii nigeriensis
Test: Antimalarial activity against chloroquine-, mefloquine-, halofantrine-resistant Plasmodium yoelii nigeriensis blood stream schizonts infected in Swiss mouse assessed as suppression of parasitemia at 12 mg/kg, im administered once daily for 4 days relative to control
Format: functional
Details: route intramuscular
For C[C@H]1[C@@H](OCCCCCCCCCOC(=O)CCC(=O)O)O[C@@H]2O[C@@]3(C)CC[C@H]4[C@H](C)CC[C@@H]1[C@@]24OO3 (mixture of isomers), the Activity was 67.27%.
C[C@H]1[C@@H](OCCCCO)O[C@@H]2OC3(C)CC[C@H]4[C@H](C)CC[C@@H]1[C@@]24OO3 gave an Activity of 100%.
Work on C[C@H]1[C@@H](OCCCCCCCCOC(=O)CCC(=O)O)O[C@@H]2O[C@@]3(C)CC[C@H]4[C@H](C)CC[C@@H]1[C@@]24OO3 yielded an Activity of 100%.
C[C@H]1[C@@H](OCCO)O[C@@H]2O[C@@]3(C)CC[C@H]4[C@H](C)CC[C@@H]1[C@@]24OO3 gave an Activity of 100%.

System: Plasmodium yoelii nigeriensis
Test: Antimalarial activity against chloroquine-, mefloquine-, halofantrine-resistant Plasmodium yoelii nigeriensis blood stream schizonts infected in Swiss mouse assessed as suppression of parasitemia at 6 mg/kg, im administered once daily for 4 days relative to control
Format: functional
Details: route intramuscular
For CCO[C@H]1O[C@@H]2O[C@@]3(C)CC[C@H]4[C@H](C)CC[C@@H]([C@H]1C)[C@@]24OO3 [ARTEMOTIL], the Activity was 100%.
For C[C@H]1[C@@H](OCCCCO)O[C@@H]2OC3(C)CC[C@H]4[C@H](C)CC[C@@H]1[C@@]24OO3, the Activity was 100%.
Work on C[C@H]1[C@@H](OCCO)O[C@@H]2O[C@@]3(C)CC[C@H]4[C@H](C)CC[C@@H]1[C@@]24OO3 yielded an Activity of 100%.

System: Plasmodium yoelii nigeriensis
Test: Antimalarial activity against chloroquine-, mefloquine-, halofantrine-resistant Plasmodium yoelii nigeriensis blood stream schizonts infected in Swiss mouse assessed as suppression of parasitemia at 3 mg/kg, im administered once daily for 4 days relative to control
Format: functional
Details: route intramuscular
Compound CCO[C@H]1O[C@@H]2O[C@@]3(C)CC[C@H]4[C@H](C)CC[C@@H]([C@H]1C)[C@@]24OO3 [ARTEMOTIL] has an Activity of 100%.
Work on C[C@H]1[C@@H](OCCCCO)O[C@@H]2OC3(C)CC[C@H]4[C@H](C)CC[C@@H]1[C@@]24OO3 yielded an Activity of 98.3%.

System: Plasmodium yoelii nigeriensis
Test: Antimalarial activity against chloroquine-, mefloquine-, halofantrine-resistant Plasmodium yoelii nigeriensis blood stream schizonts infected in Swiss mouse assessed as disease cured mouse at 48 mg/kg, im administered once daily for 4 days measured on day 28
Format: functional, organism-based
Set-up: dose 48 mg/kg
Details: not given
With C[C@H]1[C@@H](OCCCCCCCCCOC(=O)CCC(=O)O)O[C@@H]2O[C@@]3(C)CC[C@H]4[C@H](C)CC[C@@H]1[C@@]24OO3 (mixture of isomers) the Activity was “Active”.
For C[C@H]1[C@@H](OCCCCO)O[C@@H]2OC3(C)CC[C@H]4[C@H](C)CC[C@@H]1[C@@]24OO3, the Activity was “Active”.
For C[C@H]1[C@@H](OCCCCCCCCOC(=O)CCC(=O)O)O[C@@H]2O[C@@]3(C)CC[C@H]4[C@H](C)CC[C@@H]1[C@@]24OO3, the Activity was “Active”.
For C[C@H]1[C@@H](OCCO)O[C@@H]2O[C@@]3(C)CC[C@H]4[C@H](C)CC[C@@H]1[C@@]24OO3, the Activity was “Active”.
In the case of C[C@H]1[C@@H](OCCOC(=O)CCC(=O)O)O[C@@H]2O[C@@]3(C)CC[C@H]4[C@H](C)CC[C@@H]1[C@@]24OO3, the Activity is reported as “inactive”.

System: Plasmodium yoelii nigeriensis
Test: Antimalarial activity against chloroquine-, mefloquine-, halofantrine-resistant Plasmodium yoelii nigeriensis blood stream schizonts infected in Swiss mouse assessed as disease cured mouse at 24 mg/kg, im administered once daily for 4 days measured on day 28
Format: functional, organism-based
Set-up: dose 24 mg/kg
Details: not given
For C[C@H]1[C@@H](OCCCCCCCCCOC(=O)CCC(=O)O)O[C@@H]2O[C@@]3(C)CC[C@H]4[C@H](C)CC[C@@H]1[C@@]24OO3 (mixture of isomers), the Activity was “inactive”.
With C[C@H]1[C@@H](OCCCCO)O[C@@H]2OC3(C)CC[C@H]4[C@H](C)CC[C@@H]1[C@@]24OO3 the Activity was “Active”.
With C[C@H]1[C@@H](OCCCCCCCCOC(=O)CCC(=O)O)O[C@@H]2O[C@@]3(C)CC[C@H]4[C@H](C)CC[C@@H]1[C@@]24OO3 the Activity was “Active”.
With C[C@H]1[C@@H](OCCO)O[C@@H]2O[C@@]3(C)CC[C@H]4[C@H](C)CC[C@@H]1[C@@]24OO3 the Activity was “Active”.

System: Plasmodium yoelii nigeriensis
Test: Antimalarial activity against chloroquine-, mefloquine-, halofantrine-resistant Plasmodium yoelii nigeriensis blood stream schizonts infected in Swiss mouse assessed as disease cured mouse at 12 mg/kg, im administered once daily for 4 days measured on day 28
Format: functional, organism-based
Set-up: dose 12 mg/kg
Details: not given
In the case of C[C@H]1[C@@H](OCCCCCCCCCOC(=O)CCC(=O)O)O[C@@H]2O[C@@]3(C)CC[C@H]4[C@H](C)CC[C@@H]1[C@@]24OO3 (mixture of isomers), the Activity is reported as “inactive”.
For C[C@H]1[C@@H](OCCCCO)O[C@@H]2OC3(C)CC[C@H]4[C@H](C)CC[C@@H]1[C@@]24OO3, the Activity was “Active”.
With C[C@H]1[C@@H](OCCCCCCCCOC(=O)CCC(=O)O)O[C@@H]2O[C@@]3(C)CC[C@H]4[C@H](C)CC[C@@H]1[C@@]24OO3 the Activity was “inactive”.

System: Plasmodium yoelii nigeriensis
Test: Antimalarial activity against chloroquine-, mefloquine-, halofantrine-resistant Plasmodium yoelii nigeriensis blood stream schizonts infected in Swiss mouse assessed as disease cured mouse at 6 mg/kg, im administered once daily for 4 days measured on day 28
Format: functional, organism-based
Set-up: dose 6 mg/kg
Details: not given
With CCO[C@H]1O[C@@H]2O[C@@]3(C)CC[C@H]4[C@H](C)CC[C@@H]([C@H]1C)[C@@]24OO3 [ARTEMOTIL] the Activity was “Active”.

System: Plasmodium yoelii nigeriensis
Test: Antimalarial activity against chloroquine-, mefloquine-, halofantrine-resistant Plasmodium yoelii nigeriensis blood stream schizonts infected in Swiss mouse assessed as disease cured mouse at 3 mg/kg, im administered once daily for 4 days measured on day 28
Format: functional, organism-based
Set-up: dose 3 mg/kg
Details: not given
In the case of CCO[C@H]1O[C@@H]2O[C@@]3(C)CC[C@H]4[C@H](C)CC[C@@H]([C@H]1C)[C@@]24OO3 [ARTEMOTIL], the Activity is reported as “inactive”.

System: Plasmodium yoelii nigeriensis
Test: Antimalarial activity against chloroquine-, mefloquine-, halofantrine-resistant Plasmodium yoelii nigeriensis infected in Swiss mouse assessed as protection from infection at 3 to 48 mg/kg, im administered once daily for 4 days measured on day 28 relative to artesunic acid
Format: functional
Details: dose mg/kg 3-48; route intramuscular
In the case of C[C@H]1[C@@H](OCCCCCCCCOC(=O)CCC(=O)O)O[C@@H]2O[C@@]3(C)CC[C@H]4[C@H](C)CC[C@@H]1[C@@]24OO3, the “fold change (FC)” value is reported as 2.

System: not listed separately
Test: Lipophilicity, log P of the compound
Format: physicochemical
Details: octanol/water
C[C@H]1[C@@H](OCCCCCCCCCOC(=O)CCC(=O)O)O[C@@H]2O[C@@]3(C)CC[C@H]4[C@H](C)CC[C@@H]1[C@@]24OO3 (mixture of isomers) gave a logP of 5.53.
For C[C@H]1[C@@H](OCCCCOC(=O)CCC(=O)O)O[C@@H]2O[C@@]3(C)CC[C@H]4[C@H](C)CC[C@@H]1[C@@]24OO3, the logP was 3.45.
C[C@H]1[C@@H](OCCCCO)O[C@@H]2OC3(C)CC[C@H]4[C@H](C)CC[C@@H]1[C@@]24OO3 showed a logP of 3.55.
Compound C[C@H]1[C@@H](OCCCCCCCCOC(=O)CCC(=O)O)O[C@@H]2O[C@@]3(C)CC[C@H]4[C@H](C)CC[C@@H]1[C@@]24OO3 has a logP of 5.12.
For C[C@H]1[C@@H](OCCO)O[C@@H]2O[C@@]3(C)CC[C@H]4[C@H](C)CC[C@@H]1[C@@]24OO3, the logP was 2.99.
Compound C[C@H]1[C@@H](OCCOC(=O)CCC(=O)O)O[C@@H]2O[C@@]3(C)CC[C@H]4[C@H](C)CC[C@@H]1[C@@]24OO3 has a logP of 2.89.
